Reference: patent US20210284668A1, “GOLD (I)-PHOSPHINE 1,2,3-TRIAZOLE DERIVATIVES WITH ANTIBIOTIC PROPERTIES” (Centre National de la Recherche Scientifique, priority 2018, published 2021)
Where “and” joins values, the source holds several entries; their conditions need not be identical. Identical values can stand only once.

Experiments:
S. aureus ATCC25923 = experiment: MIC by microdilution, S. aureus ATCC25923; assay type: cell-based, Staphylococcus aureus; details: S. aureus ATCC25923 (MecA negative, wild-type), Mueller-Hinton broth, in duplicate
Experimental: (§1) The antibacterial profile of each derivative was evaluated by the standard microdilution method for susceptibility testing on 16 different strains, following the guidelines of CLSI. The selected panel included: • S. aureus ATCC25923 (MecA negative, wild-type) • S. aureus ATCC29213 (MecA negative, wild-type) • S. aureus ATCC700699 (MecA positive, glycopeptide resistant) • S. aureus ST20131365 (MecA positive, glycopeptide resistant) • S. epidermidis ATCC14990 (MecA negative, wild-type) • S. epidermidis ATCC35984 (MecA positive) • S. epidermidis ST20140436 (MecA positive, glycopeptide resistant) • S. epidermidis ST20150446 (MecA positive, glycopeptide resistant) • E. faecalis JH2-2 (wild-type) • E. faecalis UCN41 (VanA positive, glycopeptide resistant) • E. faecalis V583 (VanB positive, glycopeptide resistant) • E. faecium ATCC19434T (wild-type) • E. faecium BM4147 (VanA positive, glycopeptide resistant) • E. faecium AUS0004 (VanB positive, glycopeptide resistant) • E. coli ATCC25922 (wild-type) • Clostridium difficile ATCC9689 (wild-type)
(§2) Both series issued from the SAR study were evaluated for their antibacterial activity on a panel of characterized strains obtained from the French National Reference Centers for Staphylococci (Lyon, Pr. Fréderique Laurent) and for Enterococci (Caen, Pr. Vincent Cattoir), respectively. As shown in the following tables, both series contain very active compounds on multi-resistant Gram-positive bacteria (Minimal Inhibitory Concentrations lower than comparator antibiotic ampicillin). Furthermore, a very important antibacterial effect has been shown too on a strain of Clostridium difficile, a Gram-positive, spore-forming, bacillus responsible for post-antibiotic diarrhoae.
(§3) The antibacterial activity of test compounds was evaluated on a selected panel of Gram-positive (4 Staphylococcus aureus, 4 Staphylococcus epidermidis, 3 Enterococcus faecalis, 3 Enterococcus faecium, 1 Clostridium difficile) and Gram-negative strains (1 Escherichia coli, 1 Klebsiella pneumoniae, 1 Pseudomonas aeruginosa, 1 Acinetacter baumannii) with known features of antibiotic resistance (from wild-type susceptibility to multi-drug resistance). The Minimal Inhibitory Concentration (MIC) of test compounds was determined in duplicate by the microdilution method in 96-well microplates with a final volume of 100 μL per well and Mueller-Hinton broth as the growth medium, as recommended by the CLSI (Clinical and Laboratory Standards Institute, document Mo7-A10, USA).

S. aureus ATCC700699 = experiment: MIC by microdilution, S. aureus ATCC700699; assay type: cell-based, Staphylococcus aureus; parameters: unit not given here; details: S. aureus ATCC700699 (MecA positive, glycopeptide resistant), in duplicate
Experimental: as §1, §2, §3

S. epidermidis ATCC14990 = experiment: MIC by microdilution, S. epidermidis ATCC14990; assay type: cell-based, Staphylococcus epidermidis; details: S. epidermidis ATCC14990 (MecA negative, wild-type), in duplicate
Experimental: as §1, §2, §3

S. epidermidis ATCC35984 = experiment: MIC by microdilution, S. epidermidis ATCC35984; assay type: cell-based, Staphylococcus epidermidis; details: S. epidermidis ATCC35984 (MecA positive), in duplicate
Experimental: as §1, §2, §3

E. faecalis JH2-2 = experiment: MIC by microdilution, E. faecalis JH2-2; assay type: cell-based, Enterococcus faecalis; parameters: unit not given here; details: E. faecalis JH2-2 (wild-type), in duplicate
Experimental: as §1, §2, §3

E. faecalis UCN41 = experiment: MIC by microdilution, E. faecalis UCN41; assay type: cell-based, Enterococcus faecalis; parameters: unit not given here; details: E. faecalis UCN41 (VanA positive, glycopeptide resistant), in duplicate
Experimental: as §1, §2, §3

E. faecium ATCC19434T = experiment: MIC by microdilution, E. faecium ATCC19434T; assay type: cell-based, Enterococcus faecium; parameters: unit not given here; details: E. faecium ATCC19434T (wild-type), in duplicate
Experimental: as §1, §2, §3

E. faecium BM4147 = experiment: MIC by microdilution, E. faecium BM4147; assay type: cell-based, Enterococcus faecium; parameters: unit not given here; details: E. faecium BM4147 (VanA positive, glycopeptide resistant), in duplicate
Experimental: as §1, §2, §3

[1] = system: panel of Gram-positive and Gram-negative strains; experiment: Antibacterial profile on the selected panel of strains; assay type: cell-based; details: summary of Tables 1-12
Experimental: as §1, §2, §3

S. aureus ST20131365 = experiment: MIC by microdilution, S. aureus ST20131365; assay type: cell-based, Staphylococcus aureus; details: S. aureus ST20131365 (MecA positive, glycopeptide resistant), in duplicate
Experimental: as §1, §2, §3

[2] = system: S. epidermidis ST20150446; experiment: MIC by microdilution, S. epidermidis ST20150446; assay type: cell-based, Staphylococcus epidermidis; details: S. epidermidis ST20150446 (MecA positive, glycopeptide resistant), in duplicate
Experimental: as §1, §2, §3

E. faecalis V583 = experiment: MIC by microdilution, E. faecalis V583; assay type: cell-based, Enterococcus faecalis; details: E. faecalis V583 (VanB positive, glycopeptide resistant), in duplicate
Experimental: as §1, §2, §3

E. faecium AUS0004 = experiment: MIC by microdilution, E. faecium AUS0004; assay type: cell-based, Enterococcus faecium; details: E. faecium AUS0004 (VanB positive, glycopeptide resistant), in duplicate
Experimental: as §1, §2, §3

E. coli ATCC25922 = experiment: MIC by microdilution, E. coli ATCC25922; assay type: cell-based, Escherichia coli; details: E. coli ATCC25922 (wild-type), in duplicate
Experimental: as §1, §2, §3

[3] = system: Clostridium difficile ATCC700057; experiment: MIC by microdilution, Clostridium difficile; assay type: cell-based; details: strain ATCC70057 [sic] (Tables 1-2) / ATCC700057 (Tables 3-10), in duplicate
[4] = system: S. epidermidis ST20140436; experiment: MIC by microdilution, S. epidermidis ST20140436; assay type: cell-based, Staphylococcus epidermidis; details: S. epidermidis ST20140436 (MecA positive, glycopeptide resistant), in duplicate
Experimental: as §1, §2, §3

SMILES | Minimal Inhibitory Concentration (MIC) (S. aureus ATCC25923) | Minimal Inhibitory Concentration (MIC) (S. aureus ATCC700699) | Minimal Inhibitory Concentration (MIC) (S. epidermidis ATCC14990) | Minimal Inhibitory Concentration (MIC) (S. epidermidis ATCC35984) | Minimal Inhibitory Concentration (MIC) (E. faecalis JH2-2) | Minimal Inhibitory Concentration (MIC) (E. faecalis UCN41) | Minimal Inhibitory Concentration (MIC) (E. faecium ATCC19434T) | Minimal Inhibitory Concentration (MIC) (E. faecium BM4147) | antimicrobial / antibacterial activity (in words) [1] | Minimal Inhibitory Concentration (MIC) (S. aureus ST20131365) | Minimal Inhibitory Concentration (MIC) [2] | Minimal Inhibitory Concentration (MIC) (E. faecalis V583) | Minimal Inhibitory Concentration (MIC) (E. faecium AUS0004) | Minimal Inhibitory Concentration (MIC) (E. coli ATCC25922) | Minimal Inhibitory Concentration (MIC) [3] | Minimal Inhibitory Concentration (MIC) [4]
C[C@@H]1COc2c(N3CCN(C)CC3)c(F)cc3c(=O)c(C(=O)O)cn1c23 [TMB47, Ofloxacin, reference compound] | 0.25 | >8 | 0.25 | 0.125 | 2 | 2 | 4 | 1 | have antimicrobial activity |  |  |  |  |  |  | 
CC[P+](CC)(CC)[Au-][c]1nn[nH]c1CN1CCOCC1 [TMB32] |  | 0.125 and 0.25 | ≤0.06 | ≤0.06 | 0.125 | 0.25 | 0.25 | 0.25 | have antimicrobial activity | 0.125 | 0.125 and 0.25 | 0.25 | 0.25 | >8 | ≤0.06 | 
CC(=O)OC[C@H]1O[C@@H]([S-])[C@H](OC(C)=O)[C@@H](OC(C)=O)[C@@H]1OC(C)=O.CCP(CC)CC.[Au+] [Auranofin, reference compound] |  | ≤0.06 | ≤0.06 | ≤0.06 |  |  | ≤0.06 |  |  |  |  |  |  |  |  | 
C#CCNc1c(F)cc2c(=O)c(C(=O)O)cn3c2c1OCC3C (centres unmarked) [TMB51] | 2 | >8 | 4 | 2 | >8 | >8 | >8 | >8 | do not show an antibacterial activity |  |  |  |  |  |  | 
CC[P+](CC)(CC)[Au-][c]1nn[nH]c1CNC(=O)NC(C(=O)NC1C(=O)N2C1SC(C)(C)C2C(=O)O)c1ccccc1 (centres unmarked) [TMB24] | 0.125 | 0.125 and 0.25 | ≤0.06 | 0.125 | 0.25 and 0.5 | 0.25 | 0.5 | 0.5 | have antimicrobial activity | 0.25 |  | 0.25 and 0.5 | 0.5 | >8 | ≤0.06 | 
CC[P+](CC)(CC)[Au-][c]1nn[nH]c1CNC(=O)NC(C(=O)O)c1ccccc1 (centres unmarked) [TMB52] |  | 0.125 | ≤0.06 | ≤0.06 | 0.25 | 0.25 | 0.25 | 0.25 | have antimicrobial activity |  |  |  |  |  |  | 
CC[P+](CC)(CC)[Au-][c]1nn[nH]c1CN1C(=O)NC2CSC(CCCCC(=O)O)C21 (centres unmarked) [TMB48] | 0.25 | 0.5 | 0.125 | 0.125 | 1 | 1 | 1 | 2 | have antimicrobial activity |  |  |  |  |  |  | 
CC[P+](CC)(CC)[Au-][c]1nn[nH]c1CNc1c(F)cc2c(=O)c(C(=O)O)cn3c2c1OCC3C (centres unmarked) [TMB49] | 0.125 | 0.25 | ≤0.06 | ≤0.06 | 1 | 1 | 0.5 and 1 | 1 | have antimicrobial activity |  |  |  |  |  |  | 
CC[P+](CC)(CC)[Au-][c]1nn[nH]c1CCC(=O)N[C@H](CO)C(=O)O [TMB38] | ≤0.06 | 0.125 | ≤0.06 | ≤0.06 | 0.125 | 0.125 | ≤0.06 | 0.125 | have antimicrobial activity | ≤0.06 | ≤0.06 | 0.125 | 0.125 |  | 0.125 and 0.25 | ≤0.06
C#CCOC(=O)N[C@@H](C(=O)N[C@@H]1C(=O)N2[C@@H]1SC(C)(C)[C@@H]2C(=O)O)c1ccccc1 [TMB2] |  |  |  |  |  |  |  |  | do not show an antibacterial activity |  |  |  |  |  |  | 
CC(=O)O.CC[P+](CC)(CC)[Au-][c]1nn[nH]c1CCN [TMB50] | 0.125 | 0.125 | ≤0.06 | ≤0.06 | 0.25 | 0.5 | 0.25 | 0.25 | have antimicrobial activity |  |  |  |  |  |  | 
